{"source": "patent US6995182B2", "about": "“1-sulfonyl pyrrolidine derivatives” (Hoffmann-La Roche Inc., priority 2000, dated 2006)", "data": [{"molecular_target": "T1, rat mGlu 1a receptor (Rattus norvegicus, UniProt P23385)", "T1 construct": "expressed in transfected cells; host or cells: EBNA cells (transient transfection)", "T1 sequence (P23385 19-1199)": "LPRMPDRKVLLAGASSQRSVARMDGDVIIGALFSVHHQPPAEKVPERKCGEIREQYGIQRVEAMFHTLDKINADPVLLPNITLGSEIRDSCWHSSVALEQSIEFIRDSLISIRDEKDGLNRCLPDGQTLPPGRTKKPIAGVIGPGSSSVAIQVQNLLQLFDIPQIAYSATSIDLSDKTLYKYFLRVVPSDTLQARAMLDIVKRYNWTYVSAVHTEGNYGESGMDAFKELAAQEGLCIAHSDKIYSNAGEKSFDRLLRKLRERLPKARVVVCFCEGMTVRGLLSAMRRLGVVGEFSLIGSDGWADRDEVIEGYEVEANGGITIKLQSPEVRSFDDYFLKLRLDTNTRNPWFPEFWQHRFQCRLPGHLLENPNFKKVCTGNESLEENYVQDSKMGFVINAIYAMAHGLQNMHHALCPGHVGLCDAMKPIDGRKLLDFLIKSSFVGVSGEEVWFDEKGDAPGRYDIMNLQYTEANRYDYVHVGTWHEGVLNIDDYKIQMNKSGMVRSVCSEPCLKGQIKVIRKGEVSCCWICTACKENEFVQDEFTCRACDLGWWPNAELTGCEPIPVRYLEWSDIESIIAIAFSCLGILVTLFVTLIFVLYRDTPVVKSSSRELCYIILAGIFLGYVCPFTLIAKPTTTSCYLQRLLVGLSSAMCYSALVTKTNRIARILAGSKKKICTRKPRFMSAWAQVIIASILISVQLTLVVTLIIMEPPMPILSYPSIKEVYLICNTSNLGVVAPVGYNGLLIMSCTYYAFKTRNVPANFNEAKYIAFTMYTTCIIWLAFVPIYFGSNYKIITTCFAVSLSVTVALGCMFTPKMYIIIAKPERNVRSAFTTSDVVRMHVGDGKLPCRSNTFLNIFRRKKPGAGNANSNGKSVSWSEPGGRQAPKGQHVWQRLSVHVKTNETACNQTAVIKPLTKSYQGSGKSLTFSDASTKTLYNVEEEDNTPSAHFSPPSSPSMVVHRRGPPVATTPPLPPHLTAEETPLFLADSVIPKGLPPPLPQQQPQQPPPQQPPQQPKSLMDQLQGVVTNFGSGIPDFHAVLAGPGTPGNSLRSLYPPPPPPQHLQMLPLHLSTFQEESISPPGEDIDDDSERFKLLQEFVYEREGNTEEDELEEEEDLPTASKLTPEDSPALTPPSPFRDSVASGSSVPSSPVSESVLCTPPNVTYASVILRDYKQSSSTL", "test": "[Ca2+]i measurements (FLIPR, Fluo-3 AM) on mGlu 1a transfected EBNA cells", "type": "cell-based", "details": "rat mGlu 1a receptor transiently transfected into EBNA cells, agonist activity", "experimental": "The pharmacological activity of the compounds was tested using the following method: cDNA encoding rat mGlu 1a receptor was transiently transfected into EBNA cells using a procedure described by E.-J. Schlaeger and K. Christensen (Transient gene expression in mammalian cells grown in serum-free suspension culture; Cytotechnology, 15: 1–13, 1998). [Ca^2+]i measurements were performed on mGlu 1a transfected EBNA cells after incubation of the cells with Fluo-3 AM (0.5 μM final concentration) for 1 hour at 37° C. followed by 4 washes with assay buffer (DMEM supplemented with Hank's salt and 20 mM HEPES. [Ca^2+]i measurements were done using a fluorometric imaging plate reader (FLIPR, Molecular Devices Corporation, La Jolla, Calif., USA). When compounds were evaluated as antagonists they were tested against 10 μM glutamate as agonist.\nThe inhibition (antagonists) or activation (agonists) curves were fitted with a four parameter logistic equation giving EC50, IC50, and Hill coefficient using the iterative non linear curve fitting software Origin (Microcal Software Inc., Northampton, Mass., USA).", "units": {"EC50": "nM"}, "values": [{"smiles": "Cc1ccc(S(=O)(=O)N2[C@@H](C#N)CC[C@H]2c2ccc(F)cc2)cc1", "note": "(racemic) [Example 4, (2RS,5SR)-5-(4-Fluoro-phenyl)-1-(toluene-4-sulfonyl)-pyrrolidine-2-carbonitrile]", "EC50": 4400}, {"smiles": "Cc1ccc(S(=O)(=O)N2[C@H](CCCCn3ncnn3)CC[C@@H]2c2ccc(F)cc2)cc1", "note": "(racemic) [Example 143, (2RS,5RS)-2-{4-[5-(4-Fluoro-phenyl)-1-(toluene-4-sulfonyl)-pyrrolidin-2-yl]-butyl}-2H-tetrazole]", "EC50": 350}, {"smiles": "Cc1ccc(S(=O)(=O)N2[C@H](CCCc3nc(C)cc(C)n3)CC[C@@H]2c2ccc(F)cc2)cc1", "note": "(racemic) [Example 123, (2RS,5RS)-2-{3-[5-(4-Fluoro-phenyl)-1-(toluene-4-sulfonyl)-pyrrolidin-2-yl]-propyl}-4,6-dimethyl-pyrimidine]", "EC50": 1280}, {"smiles": "Cc1ccc(S(=O)(=O)N2CCCC2CCCNC(=O)C2CC2)cc1", "note": "(racemic) [Example 87, (RS)-Cyclopropanecarboxylic acid {3-[1-(toluene-4-sulfonyl)-pyrrolidin-2-yl]-propyl}-amide]", "EC50": 980}, {"smiles": "Cc1ccc(S(=O)(=O)N2[C@@H](Cc3noc(C)n3)CC[C@H]2c2ccc(F)cc2)cc1", "note": "(racemic) [Example 21, (2RS,5SR)-3-[5-(4-Fluoro-phenyl)-1-(toluene-4-sulfonyl)-pyrrolidin-2-yl-methyl]-5-methyl-[1,2,4]oxadiazole]", "EC50": 630}, {"smiles": "Cc1ccc(S(=O)(=O)N2[C@@H](c3nnco3)CC[C@H]2c2ccc(F)cc2)cc1", "note": "(racemic) [Example 137, (2RS,5SR)-2-[5-(4-Fluoro-phenyl)-1-(toluene-4-sulfonyl)-pyrrolidin-2-yl]-[1,3,4]oxadiazole]", "EC50": 1240}, {"smiles": "Cc1ccc(S(=O)(=O)N2[C@@H](Cc3nnn(C)n3)CC[C@H]2c2ccc(F)cc2)cc1", "note": "(racemic) [Example 39, (2RS,5SR)-5-[5-(4-Fluoro-phenyl)-1-(toluene-4-sulfonyl)-pyrrolidin-2-yl-methyl]-2-methyl-2H-tetrazole]", "EC50": 360}, {"smiles": "Cc1ccc(S(=O)(=O)N2C(CCCO)CC[C@H]2c2ccc(F)cc2)cc1", "note": "(stereo in doubt) [Example 64, (2S,5S)-3-[5-(4-Fluoro-phenyl)-1-(toluene-4-sulfonyl)-pyrrolidin-2-yl]-propan-1-ol]", "EC50": 200}, {"smiles": "Cc1ccc(S(=O)(=O)N2[C@H](CCCNS(C)(=O)=O)CC[C@@H]2c2ccc(F)cc2)cc1", "note": "(racemic) [Example 77, (2RS,5RS)-N-{3-[5-(4-Fluoro-phenyl)-1-(toluene-4-sulfonyl)-pyrrolidin-2-yl]-propyl}-methanesulfonamide]", "EC50": 160}, {"smiles": "Cc1ccc(S(=O)(=O)N2[C@@H](CNC(=O)C3CC3)CC[C@H]2c2ccc(F)cc2)cc1", "note": "(racemic) [Example 16, (2RS,5SR)-Cyclopropanecarboxylic acid [5-(4-fluoro-phenyl)-1-(toluene-4-sulfonyl)-pyrrolidin-2-yl-methyl]-amide]", "EC50": 210}, {"smiles": "Cc1ccc(S(=O)(=O)N2[C@@H](CCl)CC[C@H]2c2ccc(F)cc2)cc1", "note": "(racemic) [Example 5, (2RS,5SR)-2-Chloromethyl-5-(4-fluoro-phenyl)-1-(toluene-4-sulfonyl)-pyrrolidine]", "EC50": 1400}, {"smiles": "Cc1ccc(S(=O)(=O)N2[C@@H](CCn3ncnn3)CC[C@H]2c2ccc(F)cc2)cc1", "note": "(racemic) [Example 101, (2RS,5SR)-2-{2-[5-(4-Fluoro-phenyl)-1-(toluene-4-sulfonyl)-pyrrolidin-2-yl]-ethyl}-2H-tetrazole]", "EC50": 1470}, {"smiles": "Cc1ccc(S(=O)(=O)N2[C@@H](CCCn3ccnc3)CC[C@H]2c2ccc(F)cc2)cc1", "note": "[Example 116, (2S,5S)-1-{3-[5-(4-Fluoro-phenyl)-1-(toluene-4-sulfonyl)-pyrrolidin-2-yl]-propyl}-1H-imidazole]", "EC50": 220}]}, {"tested_on": "not given", "test": "not given", "details": "not given", "units": {"melting point": "°C"}, "values": [{"smiles": "Cc1ccc(S(=O)(=O)N2[C@@H](C#N)CC[C@H]2c2ccc(F)cc2)cc1", "note": "(racemic) [Example 4, (2RS,5SR)-5-(4-Fluoro-phenyl)-1-(toluene-4-sulfonyl)-pyrrolidine-2-carbonitrile]", "melting point": 128}, {"smiles": "Cc1ccc(S(=O)(=O)N2[C@H](CCCNS(C)(=O)=O)CC[C@@H]2c2ccc(F)cc2)cc1", "note": "(racemic) [Example 77, (2RS,5RS)-N-{3-[5-(4-Fluoro-phenyl)-1-(toluene-4-sulfonyl)-pyrrolidin-2-yl]-propyl}-methanesulfonamide]", "melting point": 123}, {"smiles": "Cc1ccc(S(=O)(=O)N2[C@@H](CNC(=O)C3CC3)CC[C@H]2c2ccc(F)cc2)cc1", "note": "(racemic) [Example 16, (2RS,5SR)-Cyclopropanecarboxylic acid [5-(4-fluoro-phenyl)-1-(toluene-4-sulfonyl)-pyrrolidin-2-yl-methyl]-amide]", "melting point": 154}, {"smiles": "Cc1ccc(S(=O)(=O)N2[C@@H](CCCO)CC[C@H]2c2ccc(F)cc2)cc1", "note": "[Example 64, (2S,5S)-3-[5-(4-Fluoro-phenyl)-1-(toluene-4-sulfonyl)-pyrrolidin-2-yl]-propan-1-ol]", "melting point": 96}, {"smiles": "Cc1ccc(S(=O)(=O)N2[C@@H](CCc3nc(C)no3)CC[C@H]2c2ccc(F)cc2)cc1", "note": "(racemic) [Example 30, (2RS,5SR)-5-{2-[5-(4-Fluoro-phenyl)-1-(toluene-4-sulfonyl)-pyrrolidin-2-yl]-ethyl}-3-methyl-[1,2,4]oxadiazole]", "melting point": 91}, {"smiles": "Cc1ccc(S(=O)(=O)N2[C@@H](CCl)CC[C@H]2c2ccc(F)cc2)cc1", "note": "(racemic) [Example 5, (2RS,5SR)-2-Chloromethyl-5-(4-fluoro-phenyl)-1-(toluene-4-sulfonyl)-pyrrolidine]", "melting point": 130}, {"smiles": "Cc1ccc(S(=O)(=O)N2[C@H](CCCc3nnn(C)n3)CC[C@@H]2c2ccc(F)cc2)cc1", "note": "(racemic) [Example 49, (2RS,5RS)-5-{3-[5-(4-Fluoro-phenyl)-1-(toluene-4-sulfonyl)-pyrrolidin-2-yl]-propyl}-2-methyl-2H-tetrazole]", "melting point": 107}, {"smiles": "Cc1ccc(S(=O)(=O)N2[C@@H](CCc3nnco3)CC[C@H]2c2ccc(F)cc2)cc1", "note": "(racemic) [Example 127, (2RS,5SR)-2-{2-[5-(4-Fluoro-phenyl)-1-(toluene-4-sulfonyl)-pyrrolidin-2-yl]-ethyl}-[1,3,4]oxadiazole]", "melting point": 138}, {"smiles": "Cc1ccc(S(=O)(=O)N2[C@@H](CCC(=N)NO)CC[C@H]2c2ccc(F)cc2)cc1", "note": "(racemic) [Example 34, (2RS,5SR)-3-[5-(4-Fluoro-phenyl)-1-(toluene-4-sulfonyl)-pyrrolidin-2-yl]-N-hydroxy-propionamidine]", "melting point": 134}, {"smiles": "Cc1ccc(S(=O)(=O)N2[C@@H](CCn3cccn3)CC[C@H]2c2ccc(F)cc2)cc1", "note": "(racemic) [Example 100, (2RS,5SR)-1-{2-[5-(4-Fluoro-phenyl)-1-(toluene-4-sulfonyl)-pyrrolidin-2-yl]-ethyl}-1H-pyrazole]", "melting point": 121}, {"smiles": "CC(=O)NCC[C@H]1CC[C@@H](c2ccc(F)cc2)N1S(=O)(=O)c1ccc(Cl)cc1", "note": "(racemic) [Example 56, (2RS,5SR)-N-{2-[1-(4-Chloro-benzenesulfonyl)-5-(4-fluoro-phenyl)-pyrrolidin-2-yl]-ethyl}-acetamide]", "melting point": 103}]}]}
